Reference: patent US10167262B2, “Herbicidal substituted 3-arylpyrazoles” (FMC CORPORATION, priority 2014, dated 2019)
Where two headings read alike, the source gives them in different places.

How the values were obtained:
Format in all cases: in vivo
[1] = tested on: blackgrass (Alopecurus myosuroides); test: Test C pre-/postemergence greenhouse test, plant response rating 0-100; settings: Alopecurus myosuroides; for pest or weed control at 62 g/ha: 62 g ai/ha; for pest or weed control at 125 g/ha: 125 g ai/ha; for pest or weed control at 250 g/ha: 250 g ai/ha
Method in brief: (§1)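 Plants were treated either at seeding (soil of loam and sand) or as 2–18 cm seedlings in a sphagnum peat mix, using test chemicals in a surfactant-containing non-phytotoxic solvent. Visual assessment relative to controls followed 13–15 days later.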

[2] = tested on: large (Lg) crabgrass (Digitaria sanguinalis); test: as above; settings: Digitaria sanguinalis; for pest or weed control at 62 g/ha: 62 g ai/ha; for pest or weed control at 125 g/ha: 125 g ai/ha; for pest or weed control at 250 g/ha: 250 g ai/ha
Method in brief: as §1

[3] = tested on: johnsongrass (Sorghum halepense); test: as above; settings: Sorghum halepense; for pest or weed control at 62 g/ha: 62 g ai/ha; for pest or weed control at 125 g/ha: 125 g ai/ha; for pest or weed control at 250 g/ha: 250 g ai/ha
Method in brief: as §1

[4] = tested on: giant foxtail (Setaria faberii); test: as above; settings: Setaria faberi; for pest or weed control at 62 g/ha: 62 g ai/ha; for pest or weed control at 125 g/ha: 125 g ai/ha; for pest or weed control at 250 g/ha: 250 g ai/ha
Method in brief: as §1

[5] = tested on: winter wheat (Triticum aestivum); test: as above; settings: Triticum aestivum; for plant injury at 62 g/ha: 62 g ai/ha; for plant injury at 125 g/ha: 125 g ai/ha; for plant injury at 250 g/ha: 250 g ai/ha
Method in brief: as §1

soybean (Glycine max) = test: as above; settings: Glycine max; for plant injury at 62 g/ha: 62 g ai/ha; for plant injury at 125 g/ha: 125 g ai/ha; for plant injury at 250 g/ha: 250 g ai/ha
Method in brief: as §1

[6] = tested on: lambsquarters (Chenopodium album); test: as above; settings: Chenopodium album; for pest or weed control at 62 g/ha: 62 g ai/ha; for pest or weed control at 125 g/ha: 125 g ai/ha; for pest or weed control at 250 g/ha: 250 g ai/ha
Method in brief: as §1

[7] = tested on: yellow nutsedge (Cyperus esculentus); test: as above; settings: Cyperus; for pest or weed control at 62 g/ha: 62 g ai/ha; for pest or weed control at 125 g/ha: 125 g ai/ha; for pest or weed control at 250 g/ha: 250 g ai/ha
Method in brief: as §1

[8] = tested on: galium (catchweed bedstraw, Galium aparine); test: as above; settings: Galium; for pest or weed control at 62 g/ha: 62 g ai/ha; for pest or weed control at 125 g/ha: 125 g ai/ha; for pest or weed control at 250 g/ha: 250 g ai/ha
Method in brief: as §1

[9] = tested on: morningglory (Ipomoea coccinea); test: as above; settings: Ipomoea; for pest or weed control at 62 g/ha: 62 g ai/ha; for pest or weed control at 125 g/ha: 125 g ai/ha; for pest or weed control at 250 g/ha: 250 g ai/ha
Method in brief: as §1

kochia (Kochia scoparia) = test: Test C postemergence greenhouse test, plant response rating 0-100; settings: Bassia scoparia, post-emergence
Method in brief: (§2)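 Postemergence spray of formulated test chemicals on plants 2 to 18 cm tall (1- to 4-leaf stage) grown in peat/vermiculite medium. Greenhouse hold 13 to 15 days, then visual comparison with untreated controls on a 0-100 scale (0 no effect, 100 complete control); dash means no test result.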

wild oat (Avena fatua) = test: as above; settings: Avena fatua, post-emergence
Method in brief: as §2

[10] = tested on: chickweed (common chickweed, Stellaria media); test: as above; settings: Stellaria media, post-emergence
Method in brief: as §2

[11] = post-emergence, Postemergence, read-out: Plant response rating (0 to 100), Blackgrass
[12] = post-emergence, Postemergence, scale 0 to 100
[13] = pre-emergence, Preemergence, read-out: Plant response rating, Blackgrass
[14] = post-emergence, Postemergence, read-out: Plant response rating (0 to 100), Crabgrass, Large
[15] = pre-emergence, Preemergence, read-out: Plant response rating, Crabgrass, Large
[16] = pre-emergence, Preemergence, 500 g ai/ha
[17] = post-emergence, Postemergence, read-out: Plant response rating (0 to 100), Johnsongrass
[18] = pre-emergence, Preemergence, read-out: Plant response rating, Johnsongrass
[19] = post-emergence, Postemergence, read-out: Plant response rating (0 to 100), Foxtail, Giant
[20] = pre-emergence, Preemergence, read-out: Plant response rating, Foxtail, Giant
[21] = post-emergence, Postemergence, read-out: Plant response rating (0 to 100), Wheat
[22] = pre-emergence, Preemergence, read-out: Plant response rating, Wheat
[23] = post-emergence, Postemergence, read-out: Plant response rating (0 to 100), Soybean
[24] = pre-emergence, Preemergence, read-out: Plant response rating, Soybean
[25] = post-emergence, Postemergence, read-out: Plant response rating (0 to 100), Lambsquarters
[26] = pre-emergence, Preemergence, read-out: Plant response rating, Lambsquarters
[27] = post-emergence, Postemergence, read-out: Plant response rating (0 to 100), Nutsedge, Yellow
[28] = pre-emergence, Preemergence, read-out: Plant response rating, Nutsedge, Yellow
[29] = post-emergence, Postemergence, read-out: Plant response rating (0 to 100), Galium
[30] = pre-emergence, Preemergence, read-out: Plant response rating, Galium
[31] = post-emergence, Postemergence, read-out: Plant response rating (0 to 100), Morningglory
[32] = pre-emergence, Preemergence, read-out: Plant response rating, Morningglory

## Cn1cc(C(=O)c2ccccc2)c(-c2cc(Cl)cc(Cl)c2)n1 [Compound 54, [3-(3,5-dichlorophenyl)-1-methyl-1H-pyrazol-4-yl]phenylmethanone]
[1]; post-emergence, Postemergence, 31 g ai/ha, read-out: Plant response rating (0 to 100), Blackgrass
  pest or weed control at 31 g/ha: 0%
[1]; [11]
  pest or weed control at 62 g/ha: 0%
  pest or weed control at 125 g/ha: 0%
[1]; [12]
  pest or weed control at 250 g/ha: 0%
[1]; [13]
  pest or weed control at 62 g/ha: 0%
  pest or weed control at 125 g/ha: 0%
[1]; pre-emergence, Preemergence
  pest or weed control at 250 g/ha: 0%
[2]; post-emergence, Postemergence, 31 g ai/ha, read-out: Plant response rating (0 to 100), Crabgrass, Large
  pest or weed control at 31 g/ha: 0%
[2]; [14]
  pest or weed control at 62 g/ha: 0%
  pest or weed control at 125 g/ha: 0%
[2]; [12]
  pest or weed control at 250 g/ha: 0%
[2]; [15]
  pest or weed control at 62 g/ha: 0%
  pest or weed control at 125 g/ha: 0%
[2]; pre-emergence, Preemergence
  pest or weed control at 250 g/ha: 0%
[2]; [16]
  pest or weed control at 500 g/ha: 30%
[3]; [17]
  pest or weed control at 62 g/ha: 0%
  pest or weed control at 125 g/ha: 0%
[3]; [12]
  pest or weed control at 250 g/ha: 0%
[3]; [18]
  pest or weed control at 62 g/ha: 0%
  pest or weed control at 125 g/ha: 0%
[3]; pre-emergence, Preemergence
  pest or weed control at 250 g/ha: 0%
[3]; [16]
  pest or weed control at 500 g/ha: 0%
[4]; post-emergence, Postemergence, 31 g ai/ha, read-out: Plant response rating (0 to 100), Foxtail, Giant
  pest or weed control at 31 g/ha: 0%
[4]; [19]
  pest or weed control at 62 g/ha: 0%
  pest or weed control at 125 g/ha: 5%
[4]; [12]
  pest or weed control at 250 g/ha: 5%
[4]; [20]
  pest or weed control at 62 g/ha: 0%
  pest or weed control at 125 g/ha: 0%
[4]; pre-emergence, Preemergence
  pest or weed control at 250 g/ha: 0%
[4]; [16]
  pest or weed control at 500 g/ha: 0%
[5]; [21]
  plant injury at 62 g/ha: 0%
  plant injury at 125 g/ha: 0%
[5]; [12]
  plant injury at 250 g/ha: 0%
[5]; [22]
  plant injury at 62 g/ha: 0%
  plant injury at 125 g/ha: 0%
[5]; pre-emergence, Preemergence
  plant injury at 250 g/ha: 0%
[5]; [16]
  plant injury at 500 g/ha: 0%
Soybean (Glycine max); [23]
  plant injury at 62 g/ha: 0%
  plant injury at 125 g/ha: 0%
Soybean (Glycine max); [12]
  plant injury at 250 g/ha: 0%
Soybean (Glycine max); [24]
  plant injury at 62 g/ha: 0%
  plant injury at 125 g/ha: 0%
Soybean (Glycine max); pre-emergence, Preemergence
  plant injury at 250 g/ha: 0%
Soybean (Glycine max); [16]
  plant injury at 500 g/ha: 0%
[6]; [25]
  pest or weed control at 62 g/ha: 50%
  pest or weed control at 125 g/ha: 55%
[6]; [12]
  pest or weed control at 250 g/ha: 55%
[6]; [26]
  pest or weed control at 62 g/ha: 30%
  pest or weed control at 125 g/ha: 40%
[6]; pre-emergence, Preemergence
  pest or weed control at 250 g/ha: 50%
[6]; [16]
  pest or weed control at 500 g/ha: 100%
[7]; [27]
  pest or weed control at 62 g/ha: 0%
  pest or weed control at 125 g/ha: 0%
[7]; [12]
  pest or weed control at 250 g/ha: 0%
[7]; [28]
  pest or weed control at 62 g/ha: 0%
  pest or weed control at 125 g/ha: 0%
[7]; pre-emergence, Preemergence
  pest or weed control at 250 g/ha: 0%
[7]; [16]
  pest or weed control at 500 g/ha: 25%
[8]; post-emergence, Postemergence, 31 g ai/ha, read-out: Plant response rating (0 to 100), Galium
  pest or weed control at 31 g/ha: 0%
[8]; [29]
  pest or weed control at 62 g/ha: 0%
  pest or weed control at 125 g/ha: 0%
[8]; [12]
  pest or weed control at 250 g/ha: 5%
[8]; [30]
  pest or weed control at 62 g/ha: 0%
  pest or weed control at 125 g/ha: 0%
[8]; pre-emergence, Preemergence
  pest or weed control at 250 g/ha: 0%
[8]; [16]
  pest or weed control at 500 g/ha: 5%
[9]; [31]
  pest or weed control at 62 g/ha: 0%
  pest or weed control at 125 g/ha: 0%
[9]; [12]
  pest or weed control at 250 g/ha: 0%
[9]; [32]
  pest or weed control at 62 g/ha: 0%
  pest or weed control at 125 g/ha: 0%
[9]; pre-emergence, Preemergence
  pest or weed control at 250 g/ha: 15%
[9]; [16]
  pest or weed control at 500 g/ha: 40%
Kochia (Kochia scoparia); 62 g ai/ha
  pest or weed control at 62 g/ha: 60%
Kochia (Kochia scoparia); 125 g ai/ha
  pest or weed control at 125 g/ha: 65%
Kochia (Kochia scoparia); 250 g ai/ha, scale 0 to 100
  pest or weed control at 250 g/ha: 70%
Wild oat (Avena fatua); 62 g ai/ha
  pest or weed control at 62 g/ha: 0%
Wild oat (Avena fatua); 125 g ai/ha
  pest or weed control at 125 g/ha: 0%
Wild oat (Avena fatua); 250 g ai/ha, scale 0 to 100
  pest or weed control at 250 g/ha: 0%
[10]; 31 g ai/ha
  pest or weed control at 31 g/ha: 0%
[10]; 62 g ai/ha
  pest or weed control at 62 g/ha: 90%
[10]; 125 g ai/ha
  pest or weed control at 125 g/ha: 100%
[10]; 250 g ai/ha, scale 0 to 100
  pest or weed control at 250 g/ha: 100%
